# Measurements as given in patent US20250115591A1, “NOVEL SULFONAMIDE CARBOXAMIDE COMPOUNDS” (INFLAZOME LIMITED, priority 2017, published 2025).
# pIC50: −log10 of the molar value. Where a name gives a salt, the structure may show the parent alone. Read-outs that look alike come from different tables or passages of the source.
# Assays:
# [1] = PK, intravenous administration; format: in vivo, male Sprague Dawley rats; details: male, Sprague Dawley, rat
# Method: Pharmacokinetic parameters were determined in male Sprague Dawley rats (Charles River, UK, 250-300 g; or Vital River Laboratory Animal Technology Co Ltd, Beijing, China, 7-9 weeks old). Animals were individually housed during the study and maintained under a 12 h light/dark cycle. Animals had free access to food and water except that orally dosed animals were food deprived overnight prior to the study. For intravenous administration, compounds were formulated as a solution in water or DMSO:PBS [10:90] in 2 mL/kg dosing volume and administered via tail vein. For oral administration, compounds were formulated as a solution in water or DMSO:water [10:90] in 5 mL/kg dosing volume and administered orally. Serial blood samples (about 120-300 μL) were taken from each animal at each of 8 time-points post dose (0.083, 0.25, 0.5, 1, 2, 4, 8 and 24 h). Samples were held on ice for no longer than 30 minutes before centrifugation (10,000 rpm (8,385 g) for 3 minutes; or 5,696 rpm (3,000 g) for 15 minutes) for plasma generation. Plasma was frozen on dry ice prior to bioanalysis. PK parameters were generated from LC-MS/MS data using Dotmatics or Phoenix WinNonlin 6.3 software.
# [2] = molecular target: NLRP3 (Homo sapiens (Human), UniProt Q96P20); experiment: THP-1 cells pyroptosis assay (LPS + nigericin, resazurin read-out); format: cell-based; details: 1 μg/ml LPS, 5 μM nigericin
# Sequence of NLRP3 (Q96P20 whole entry): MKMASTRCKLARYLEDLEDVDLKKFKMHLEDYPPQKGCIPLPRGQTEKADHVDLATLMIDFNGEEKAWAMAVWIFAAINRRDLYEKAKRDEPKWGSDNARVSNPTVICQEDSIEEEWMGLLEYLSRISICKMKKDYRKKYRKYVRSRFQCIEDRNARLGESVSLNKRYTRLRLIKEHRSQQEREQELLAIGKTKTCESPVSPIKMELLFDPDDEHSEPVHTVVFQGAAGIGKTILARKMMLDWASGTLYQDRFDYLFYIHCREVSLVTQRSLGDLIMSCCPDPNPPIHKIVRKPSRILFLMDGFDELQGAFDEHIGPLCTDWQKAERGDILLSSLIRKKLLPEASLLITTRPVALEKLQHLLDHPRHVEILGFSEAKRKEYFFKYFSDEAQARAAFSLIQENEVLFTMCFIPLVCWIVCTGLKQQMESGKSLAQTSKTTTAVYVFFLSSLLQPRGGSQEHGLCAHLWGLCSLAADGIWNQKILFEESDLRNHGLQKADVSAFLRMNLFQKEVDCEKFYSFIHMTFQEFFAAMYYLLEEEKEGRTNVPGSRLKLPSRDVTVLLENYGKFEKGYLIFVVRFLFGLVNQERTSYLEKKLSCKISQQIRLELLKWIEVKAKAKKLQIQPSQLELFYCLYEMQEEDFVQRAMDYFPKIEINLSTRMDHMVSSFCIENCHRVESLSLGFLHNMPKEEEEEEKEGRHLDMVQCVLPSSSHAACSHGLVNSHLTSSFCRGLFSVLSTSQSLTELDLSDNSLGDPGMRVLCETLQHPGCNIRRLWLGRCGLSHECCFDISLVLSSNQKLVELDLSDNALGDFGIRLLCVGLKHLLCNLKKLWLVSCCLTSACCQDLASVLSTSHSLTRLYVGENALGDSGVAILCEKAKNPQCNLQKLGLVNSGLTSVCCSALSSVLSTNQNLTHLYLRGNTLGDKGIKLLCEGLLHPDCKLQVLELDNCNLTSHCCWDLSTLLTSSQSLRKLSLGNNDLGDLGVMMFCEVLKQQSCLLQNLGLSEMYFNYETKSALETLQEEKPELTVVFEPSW
# Method: THP-1 cells (ATCC #TIB-202) were grown in RPMI containing L-glutamine (Gibco 15 #11835) supplemented with 1 mM sodium pyruvate (Sigma #S8636) and penicillin (100 units/ml)/streptomycin (0.1 mg/ml) (Sigma #P4333) in 10% Fetal Bovine Serum (FBS) (Sigma #F0804). The cells were routinely passaged and grown to confluency (˜10^6 cells/ml). On the day of the experiment, THP-1 cells were harvested and resuspended into RPMI medium (without FBS). The cells were then counted and viability (>90%) checked by Trypan blue (Sigma #T8154). Appropriate dilutions were made to give a concentration of 625,000 cells/ml. To this diluted cell solution was added LPS (Sigma #[4524) to give a 1 μg/ml Final Assay Concentration (FAC). 40μ of the final preparation was aliquoted into each well of a 96-well plate. The plate thus prepared was used for compound screening.
# The following method step-by-step assay was followed for compound screening. • 1. Seed THP-1 cells (25,000 cells/well) containing 1.0 μg/ml LPS in 40μ of RPMI medium (without FBS) in 96-well, black walled, clear bottom cell culture plates coated with poly-D-lysine (VWR #734-0317) • 2. Add 5 μl compound (8 points half-log dilution, with […]) or vehicle (DMSO 0.1% FAC) to the appropriate wells • 3. Incubate for 3 hrs at 37° C. and 5% CO2 • 4. Add 5 μl nigericin (Sigma #N7143) (FAC 5 μM) to all wells • 5. Incubate for 1 hr at 37° C. and 5% CO2 • 6. At the end of the incubation period, spin plates at 300×g for 3 mins and remove supernatant • 7. Then add 50 μl of resazurin (Sigma #R7017) (FAC 100 μM resazurin in RPMI medium without FBS) and incubate plates for a further 1-2 hrs at 37° C. and 5% CO2 • 8. Plates were read in an Envision reader at Ex 560 nm and Em 590 nm • 9. IC50 data is fitted to a non-linear regression equation (log inhibitor vs response-variable slope 4-parameters)
SMILES,pIC50 [2],other results
"O=C(Nc1c2c(cc3c1CCC3)CCC2)NS(=O)(=O)C1CN(C2CCC2)C1 [Example 18, 1-Cyclobutyl-N-((1,2,3,5,6,7-hexahydro-s-indacen-4-yl)carbamoyl)azetidine-3-sulfonamide, potassium salt]",–,"AUC ([1]; plasma, intravenous, dose 1 mg/kg, read-out: AUC): 1530 ng·h/mL; clearance ([1]; plasma, intravenous, dose 1 mg/kg, read-out: Cl): 10.9 mL/min/kg; half-life ([1]; plasma, intravenous, dose 1 mg/kg, read-out: T1/2 (converted)): 0.9 h; Vd ([1]; plasma, intravenous, dose 1 mg/kg, read-out: Vdss): 0.42 L/kg"
"CCN1CCC(S(=O)(=O)NC(=O)Nc2c3c(cc4c2CCC4)CCC3)C1 (centres unmarked) [Example 37, 1-Ethyl-N-((1,2,3,5,6,7-hexahydro-s-indacen-4-yl)carbamoyl) pyrrolidine-3-sulfonamide, potassium salt]",–,"AUC ([1]; plasma, intravenous, dose 1.46 mg/kg, read-out: AUC): 2250 ng·h/mL; clearance ([1]; plasma, intravenous, dose 1.46 mg/kg, read-out: Cl): 10.8 mL/min/kg; half-life ([1]; plasma, intravenous, dose 1.46 mg/kg, read-out: T1/2 (converted)): 2.1 h; Vd ([1]; plasma, intravenous, dose 1.46 mg/kg, read-out: Vdss): 0.59 L/kg"
"CC(C)N1[C@@H]2CC[C@H]1C[C@@H](S(=O)(=O)NC(=O)Nc1c3c(cc4c1CCC4)CCC3)C2 [Example 45, (1R*,3R*,5S*)—N-((1,2,3,5,6,7-Hexahydro-s-indacen-4-yl)carbamoyl)-8-isopropyl-8-azabicyclo[3.2.i]octane-3-sulfonamide, potassium salt]",–,"AUC ([1]; in vivo, iv, 0.66 mg/kg): 703 ng·h/mL; Vd ([1]; in vivo, iv, 0.66 mg/kg): 2.06 L/kg; clearance ([1]; in vivo, iv, 0.66 mg/kg): 15.6 mL/min/kg; half-life ([1]; in vivo, iv, 0.66 mg/kg): 3.3 h"
"CCN1[C@@H]2CC[C@H]1C[C@H](S(=O)(=O)NC(=O)Nc1c3c(cc4c1CCC4)CCC3)C2 [Example 70, N-((1,2,3,5,6,7-Hexahydro-s-indacen-4-yl)carbamoyl)-8-ethyl-8-azabicyclo[3.2.1]octane-3-sulfonamide exo isomers, potassium salt]",–,"AUC ([1]; in vivo, iv, 1.86 mg/kg): 2550 ng·h/mL; Vd ([1]; in vivo, iv, 1.86 mg/kg): 0.53 L/kg; clearance ([1]; in vivo, iv, 1.86 mg/kg): 12.1 mL/min/kg; half-life ([1]; in vivo, iv, 1.86 mg/kg): 1.7 h"
"CCN1CC(S(=O)(=O)NC(=O)Nc2c3c(cc4c2CCC4)CCC3)CC1=O (centres unmarked) [Example 147, 1-Ethyl-N-((1,2,3,5,6,7-hexahydro-s-indacen-4-yl)carbamoyl)-5-oxopyrrolidine-3-sulfonamide, potassium salt]",5.00 to 6.00,–
"COC1CN(C)CC1S(=O)(=O)NC(=O)Nc1c2c(cc3c1CCC3)CCC2 (centres unmarked) [Example 149, N-((1,2,3,5,6,7-Hexahydro-s-indacen-4-yl)carbamoyl)-4-methoxy-1-methylpyrrolidine-3-sulfonamide, potassium salt]",5.00 to 6.00,–
"CCN1CC(OC)C(S(=O)(=O)NC(=O)Nc2c3c(cc4c2CCC4)CCC3)C1 (centres unmarked) [Example 150, 1-Ethyl-N-((1,2,3,5,6,7-hexahydro-s-indacen-4-yl)carbamoyl)-4-methoxypyrrolidine-3-sulfonamide, potassium salt]",> 6.00,–
"CC(C)(C)[Si](C)(C)OCCN1CC(S(=O)(=O)NC(=O)Nc2c3c(cc4c2CCC4)CCC3)C1 [Example 151, 1-(2-((tert-Butyldimethylsilyl)oxy)ethyl)-N-((1,2,3,5,6,7-hexahydro-s-indacen-4-yl)carbamoyl)azetidine-3-sulfonamide, potassium salt]",> 6.00,–
"CC(C)n1cccc(S(=O)(=O)NC(=O)Nc2c3c(cc4c2CCC4)CCC3)c1=O [Example 182, N-((1,2,3,5,6,7-Hexahydro-s-indacen-4-yl)carbamoyl)-1-isopropyl-2-oxo-1,2-dihydropyridine-3-sulfonamide]",5.00 to 6.00,–
"CN(C)CCn1cc(S(=O)(=O)NC(=O)Nc2c3c(cc4c2CCC4)CCC3)ccc1=O [Example 184, 1-(2-(Dimethylamino)ethyl)-N-((1,2,3,5,6,7-hexahydro-s-indacen-4-yl)carbamoyl)-6-oxo-1,6-dihydropyridine-3-sulfonamide]",5.00 to 6.00,–
"CCN1CCC(S(=O)(=O)NC(=O)Nc2c(-c3ccnc(OC)c3)ccc3c2CCC3)CC1 [Example 188, 1-Ethyl-N-((5-(2-methoxypyridin-4-yl)-2,3-dihydro-1H-inden-4-yl)carbamoyl)piperidine-4-sulfonamide, potassium salt]",5.00 to 6.00,–
"CN1CCCC(S(=O)(=O)NC(=O)Nc2c3c(cc4c2CCC4)CCC3)CC1 (centres unmarked) [Example 195, N-((1,2,3,5,6,7-hexahydro-s-indacen-4-yl)carbamoyl)-1-methylazepane-4-sulfonamide, potassium salt]",> 6.00,–

# The next lines start with results.
pIC50 [2],SMILES,other results
5.00 to 6.00,"CC(C)c1cc(F)cc(-c2ccnc(C#N)c2)c1NC(=O)NS(=O)(=O)C1CN(C(C)C)C1 [Example 157, N-((2-(2-Cyanopyridin-4-yl)-4-fluoro-6-isopropylphenyl)carbamoyl)-1-isopropylazetidine-3-sulfonamide]",–
5.00 to 6.00,"CC(C)c1cc(F)cc(-c2ccnc(C#N)c2)c1NC(=O)NS(=O)(=O)C1CN(C2CCC2)C1 [Example 161, N-((2-(2-Cyanopyridin-4-yl)-4-fluoro-6-isopropylphenyl)carbamoyl)-1-cyclobutylazetidine-3-sulfonamide]",–
5.00 to 6.00,"CCN1CC(S(=O)(=O)NC(=O)Nc2c(-c3ccnc(C#N)c3)cc(F)cc2C(C)C)C1 [Example 165, N-((2-(2-Cyanopyridin-4-yl)-4-fluoro-6-isopropylphenyl)carbamoyl)-1-ethylazetidine-3-sulfonamide]",–
5.00 to 6.00,"CCN1CC(S(=O)(=O)NC(=O)Nc2c(-c3ccnc(OC)c3)cc(F)cc2C(C)C)C1 [Example 166, 1-Ethyl-N-((4-fluoro-2-isopropyl-6-(2-methoxypyridin-4-yl)phenyl)carbamoyl)azetidine-3-sulfonamide]",–
5.00 to 6.00,"CC(C)c1cc(F)cc(-c2ccnc(C#N)c2)c1NC(=O)NS(=O)(=O)C1CN(Cc2cccnc2)C1 [Example 169, N-((2-(2-Cyanopyridin-4-yl)-4-fluoro-6-isopropylphenyl)carbamoyl)-1-(pyridin-3-ylmethyl)azetidine-3-sulfonamide]",–
> 6.00,"CC(C)c1cc(F)cc(-c2cccnc2)c1NC(=O)NS(=O)(=O)C1CN(C(C)C)C1 [Example 175, N-((4-Fluoro-2-isopropyl-6-(pyridin-3-yl)phenyl)carbamoyl)-1-isopropylazetidine-3-sulfonamide]",–
5.00 to 6.00,"CC(C)c1cc(F)cc(-c2cccnc2)c1NC(=O)NS(=O)(=O)C1CCN(C(C)C)CC1 [Example 176, N-((4-Fluoro-2-isopropyl-6-(pyridin-3-yl)phenyl)carbamoyl)-1-isopropylpiperidine-4-sulfonamide]",–
5.00 to 6.00,"COc1cc(-c2cc(F)cc(C(C)C)c2NC(=O)NS(=O)(=O)C2CN(Cc3cccnc3)C2)ccn1 [Example 177, N-((4-Fluoro-2-isopropyl-6-(2-methoxypyridin-4-yl)phenyl)carbamoyl)-1-(pyridin-3-ylmethyl)azetidine-3-sulfonamide]",–
> 6.00,"COc1cc(-c2ccc3c(c2NC(=O)NS(=O)(=O)c2ccn(C(C)C)c(=O)c2)CCC3)ccn1 [Example 179, 1-Isopropyl-N-((5-(2-methoxypyridin-4-yl)-2,3-dihydro-1H-inden-4-yl)carbamoyl)-2-oxo-1,2-dihydropyridine-4-sulfonamide, sodium salt]",–
5.00 to 6.00,"CC(C)n1ccc(S(=O)(=O)NC(=O)Nc2c3c(cc4c2CCC4)CCC3)cc1=O [Example 180, N-((1,2,3,5,6,7-Hexahydro-s-indacen-4-yl)carbamoyl)-1-isopropyl-2-oxo-1,2-dihydropyridine-4-sulfonamide, sodium salt]",–
5.00 to 6.00,"CCN1CCC(S(=O)(=O)NC(=O)Nc2c(-c3ccnc(C#N)c3)ccc3c2CCC3)CC1 [Example 190, N-((5-(2-Cyanopyridin-4-yl)-2,3-dihydro-1H-inden-4-yl)carbamoyl)-1-ethylpiperidine-4-sulfonamide, potassium salt]",–
